Experimental findings from patent US20120277299A1, “METHOD FOR MODULATING ION TRANSPORTER” (SUCAMPO AG, priority 2011, published 2012) are described below.

In the assay the test system is Na^+/K^+/Cl^− cotransporter. Nature of the assay: 86Rb uptake assay for Na+/K+/Cl− cotransporter activity in A7r5 cells. Format: cell-based, Rat. The settings on record: for effect on 86Rb uptake (activation of Na+/K+/Cl− cotransporter): 0.01 μM to 10 μM; for % control activity: 86Rb uptake, 10 min at 37° C. The procedure: The effect of Compound 1 ((−)-7-[(2R,4aR,5R,7aR)-2-(1,1-difluoropentyl)-2-hydroxy-6-oxooctahydrocyclopenta[b]pyran-5-yl]heptanoic acid) and Compound 2 ((−)-7-{(2R,4aR,5R,7aR)-2-[(3S)-1,1-difluoro-3-methylpentyl]-2-hydroxy-6-oxooctahydrocyclopenta[b]pyran-5-yl}heptanoic acid) on […] cotransporter were assessed by ^86Rb uptake. Rat aorta-derived smooth muscle cells (A7r5) cells were cultured to sub-confluent on culture dishes and used for the assay. The culture medium was removed and replaced by uptake medium that contains labeled isotope (47 μM ^86Rb) and each compound.
After 10 min incubation at 37° C., uptake medium was removed and extracellular radioactivity was washed using 0.1M […] solution. The cells were harvested in 0.1M NaOH and the radioactivity incorporated by the cells was determined. Compound1 and 2 were tested at concentrations ranging from 0.01 μM to 10 μM and each determination was made in duplicate.

For `CCCCC(F)(F)[C@@]1(O)CC[C@H]2[C@@H](CC(=O)[C@@H]2CCCCCCC(=O)O)O1` [Compound 1, (−)-7-[(2R,4aR,5R,7aR)-2-(1,1-difluoropentyl)-2-hydroxy-6-oxooctahydrocyclopenta[b]pyran-5-yl]heptanoic acid], the “effect on 86Rb uptake (activation of Na+/K+/Cl− cotransporter)” value was “increased ^86Rb uptake concentration-dependently”. Also, where the note is “compound 0.01 μM”, the “% control activity” value is 82.7%. Also, the “% control activity” value (compound 0.03 μM) is recorded as 115.7%. The “% control activity” value (compound 0.1 μM) amounted to 122.6%. Further, for the setting “compound 0.3 μM”, the “% control activity” value is recorded as 133.2%. For the same compound, the “% control activity” value (compound 1 μM) amounted to 134.2%. For the same compound, where the note is “compound 3 μM”, the “% control activity” value is recorded as 152.3%. Under “compound 10 μM”, the “% control activity” value is recorded as 175.5%.

Take `CC[C@H](C)CC(F)(F)[C@@]1(O)CC[C@H]2[C@@H](CC(=O)[C@@H]2CCCCCCC(=O)O)O1` [Compound 2, (−)-7-{(2R,4aR,5R,7aR)-2-[(3S)-1,1-difluoro-3-methylpentyl]-2-hydroxy-6-oxooctahydrocyclopenta[b]pyran-5-yl}heptanoic acid]: the “effect on 86Rb uptake (activation of Na+/K+/Cl− cotransporter)” value was “increased ^86Rb uptake concentration-dependently”. In addition, the “% control activity” value (compound 0.01 μM) turned out to be 108.1%. For the same compound, the “% control activity” value (compound 0.03 μM) was 143.0%. Moreover, the “% control activity” value (compound 0.1 μM) came out at 157.4%. In addition, the “% control activity” value (compound 0.3 μM) is recorded as 171.3%. In addition, the “% control activity” value (compound 1 μM) amounted to 168.5%. In addition, the “% control activity” value (compound 3 μM) is reported as 213.6%. Besides, the “% control activity” value (compound 10 μM) is listed as 205.1%.
